Read-outs that look alike come from different tables or passages of the source.
Assays:
786-0 (Renal Cancer) = assay: NCI DTP tumor cell line screen (SRB), 786-0
Description: (§1) For a typical screening experiment, cells are inoculated into 96 well microtiter plates in 100 μL at plating densities ranging from 5,000 to 40,000 cells/well depending on the doubling time of individual cell lines. After cell inoculation, the microtiter plates are incubated at 37° C., 5% CO2, 95% air and 100% relative humidity for 24 h prior to addition of experimental drugs.
(§2) After 24 h, two plates of each cell line are fixed in situ with TCA, to represent a measurement of the cell population for each cell line at the time of drug addition (Tz). Experimental drugs are solubilized in dimethyl sulfoxide at 400-fold the desired final maximum test concentration and stored frozen prior to use. At the time of drug addition, an aliquot of frozen concentrate is thawed and diluted to twice the desired final maximum test concentration with complete medium containing 50 μg/ml gentamicin. Additional four, 10-fold or ½ log serial dilutions are made to provide a total of five drug concentrations plus control. Aliquots of 100 μl of these different drug dilutions are added to the appropriate microtiter wells already containing 100 μl of medium, resulting in the required final drug concentrations.
(§3) Following drug addition, the plates are incubated for an additional 48 h at 37° C., 5% CO2, 95% air, and 100% relative humidity. For adherent cells, the assay is terminated by the addition of cold TCA. Cells are fixed in situ by the gentle addition of 50 μl of cold 50% (w/v) TCA (final concentration, 10% TCA) and incubated for 60 minutes at 4° C. The supernatant is discarded, and the plates are washed five times with tap water and air dried. Sulforhodamine B (SRB) solution (1001) at 0.4% (w/v) in 1% acetic acid is added to each well, and plates are incubated for 10 minutes at room temperature. After staining, unbound dye is removed by washing five times with 1% acetic acid and the plates are air dried. Bound stain is subsequently solubilized with 10 mM trizma base, and the absorbance is read on an automated plate reader at a wavelength of 515 nm. For suspension cells, the methodology is the same except that the assay is terminated by fixing settled cells at the bottom of the wells by gently adding 50 μl of 80% TCA (final concentration, 16% TCA). Using the seven absorbance measurements [time zero, (Tz), control growth, (C), and test growth in the presence of drug at the five concentration levels (Ti)], the percentage growth is calculated at each of the drug concentrations levels. Percentage growth inhibition is calculated as: [(Ti−Tz)/(C−Tz)]×100 for concentrations for which Ti>/=Tz [(Ti−Tz)/Tz]×100 for concentrations for which Ti<Tz
(§4) Three dose response parameters are calculated for each experimental agent. […] The drug concentration resulting in total growth inhibition (TGI) is calculated from Ti=Tz. […] Values are calculated for each of these three parameters if the level of activity is reached; however, if the effect is not reached or is exceeded, the value for that parameter is expressed as greater or less than the maximum or minimum concentration tested.

TK-10 (Renal Cancer) = assay: NCI DTP tumor cell line screen (SRB), TK-10
Description: as §1, §2, §3, §4

UO-31 (Renal Cancer) = assay: NCI DTP tumor cell line screen (SRB), UO-31
Description: as §1, §2, §3, §4

[1] = tested on: HOP-62 (Non-Small Cell Lung Cancer); assay: NCI DTP tumor cell line screen (SRB), HOP-62
Description: as §1, §2, §3, §4

IGROV1 (Ovarian Cancer) = assay: NCI DTP tumor cell line screen (SRB), IGROV1
Description: as §1, §2, §3, §4

OVCAR-4 (Ovarian Cancer) = assay: NCI DTP tumor cell line screen (SRB), OVCAR-4
Description: as §1, §2, §3, §4

[2] = tested on: NCI-H522 (Non-Small Cell Lung Cancer)
Description: as §1, §2, §3, §4

COLO 205 (Colon Cancer) = assay: NCI DTP tumor cell line screen (SRB), COLO 205
Description: as §1, §2, §3, §4

SK-MEL-2 (Melanoma) = assay: NCI DTP tumor cell line screen (SRB), SK-MEL-2
Description: as §1, §2, §3, §4

RPMI-8226 (Leukemia) = assay: NCI DTP tumor cell line screen (SRB), RPMI-8226
Description: as §1, §2, §3, §4

[3] = tested on: A549/ATCC (Non-Small Cell Lung Cancer); assay: NCI DTP tumor cell line screen (SRB), A549/ATCC
Description: as §1, §2, §3, §4

SK-MEL-28 (Melanoma) = assay: NCI DTP tumor cell line screen (SRB), SK-MEL-28
Description: as §1, §2, §3, §4

[4] = tested on: MDA-MB-435 (Breast Cancer); assay: NCI DTP tumor cell line screen (SRB), MDA-MB-435
Description: as §1, §2, §3, §4

[5] = tested on: NCI/ADR-RES (Breast Cancer)
Description: as §1, §2, §3, §4

[6] = tested on: MDA-MB-231/ATCC (Breast Cancer); assay: NCI DTP tumor cell line screen (SRB), MDA-MB-231/ATCC
Description: as §1, §2, §3, §4

4-[5-(2-Phenanthrenyl)-3-(trifluoromethyl)-1H-pyrazol-1-yl]-phenyl -guanidine [Compound 71]
GI50 (786-0 (Renal Cancer)): 1490 nM
TGI (786-0 (Renal Cancer)): 2.91E−06
Percent Growth (786-0 (Renal Cancer); Log10 Concentration −4.0): −30%
Percent Growth (786-0 (Renal Cancer); Log10 Concentration −6.0): 80%
GI50 (TK-10 (Renal Cancer)): 1320 nM
TGI (TK-10 (Renal Cancer)): 2.59E−06
Percent Growth (TK-10 (Renal Cancer); Log10 Concentration −4.0): −64%
Percent Growth (TK-10 (Renal Cancer); Log10 Concentration −5.0): −100%
Percent Growth (TK-10 (Renal Cancer); Log10 Concentration −6.0): 71%
Percent Growth (TK-10 (Renal Cancer); Log10 Concentration −7.0): 90%
Percent Growth (TK-10 (Renal Cancer); Log10 Concentration −8.0): 78%
GI50 (UO-31 (Renal Cancer)): 1570 nM
TGI (UO-31 (Renal Cancer)): 2.92E−06
Percent Growth (UO-31 (Renal Cancer); Log10 Concentration −4.0): −35%
Percent Growth (UO-31 (Renal Cancer); Log10 Concentration −5.0): −100%
Percent Growth (UO-31 (Renal Cancer); Log10 Concentration −7.0): 94%
Percent Growth (UO-31 (Renal Cancer); Log10 Concentration −8.0): 91%
GI50 [1]: 1720 nM
Percent Growth ([1]; Log10 Concentration −4.0): −36%
Percent Growth ([1]; Log10 Concentration −5.0): −98%
Percent Growth ([1]; Log10 Concentration −7.0): 97%
Percent Growth ([1]; Log10 Concentration −8.0): 100%
GI50 (IGROV1 (Ovarian Cancer)): 1070 nM
TGI (IGROV1 (Ovarian Cancer)): 2.26E−06
Percent Growth (IGROV1 (Ovarian Cancer); Log10 Concentration −4.0): −53%
Percent Growth (IGROV1 (Ovarian Cancer); Log10 Concentration −5.0): −100%
Percent Growth (IGROV1 (Ovarian Cancer); Log10 Concentration −6.0): 55%
Percent Growth (IGROV1 (Ovarian Cancer); Log10 Concentration −7.0): 83%
Percent Growth (IGROV1 (Ovarian Cancer); Log10 Concentration −8.0): 85%
GI50 (OVCAR-4 (Ovarian Cancer)): 1310 nM
TGI (OVCAR-4 (Ovarian Cancer)): 2.58E−06
Percent Growth (OVCAR-4 (Ovarian Cancer); Log10 Concentration −4.0): −66%
Percent Growth (OVCAR-4 (Ovarian Cancer); Log10 Concentration −5.0): −100%
Percent Growth (OVCAR-4 (Ovarian Cancer); Log10 Concentration −6.0): 70%
Percent Growth (OVCAR-4 (Ovarian Cancer); Log10 Concentration −7.0): 79%
GI50 [2]: 1450 nM
TGI [2]: 2.82E−06
Percent Growth ([2]; Log10 Concentration −4.0): −43%
Percent Growth ([2]; Log10 Concentration −5.0): −95%
Percent Growth ([2]; Log10 Concentration −6.0): 78%
Percent Growth ([2]; Log10 Concentration −8.0): 82%
GI50 (COLO 205 (Colon Cancer)): 1360 nM
TGI (COLO 205 (Colon Cancer)): 2.69E−06
Percent Growth (COLO 205 (Colon Cancer); Log10 Concentration −4.0): −32%
Percent Growth (COLO 205 (Colon Cancer); Log10 Concentration −6.0): 73%
Percent Growth (COLO 205 (Colon Cancer); Log10 Concentration −7.0): 83%
Percent Growth (COLO 205 (Colon Cancer); Log10 Concentration −8.0): 95%
GI50 (SK-MEL-2 (Melanoma)): 1570 nM
TGI (SK-MEL-2 (Melanoma)): 2.91E−06
Percent Growth (SK-MEL-2 (Melanoma); Log10 Concentration −4.0): −29%
Percent Growth (SK-MEL-2 (Melanoma); Log10 Concentration −5.0): −100%
Percent Growth (SK-MEL-2 (Melanoma); Log10 Concentration −7.0): 97%
Percent Growth (SK-MEL-2 (Melanoma); Log10 Concentration −8.0): 85%
GI50 (RPMI-8226 (Leukemia)): 1030 nM
TGI (RPMI-8226 (Leukemia)): 2.25E−06
Percent Growth (RPMI-8226 (Leukemia); Log10 Concentration −4.0): −47%
Percent Growth (RPMI-8226 (Leukemia); Log10 Concentration −5.0): −95%
Percent Growth (RPMI-8226 (Leukemia); Log10 Concentration −6.0): 52%
Percent Growth (RPMI-8226 (Leukemia); Log10 Concentration −7.0): 65%
Percent Growth (RPMI-8226 (Leukemia); Log10 Concentration −8.0): 58%
GI50 [3]: 1680 nM
TGI [3]: 3.04E−06
Percent Growth ([3]; Log10 Concentration −4.0): −63%
Percent Growth ([3]; Log10 Concentration −5.0): −100%
GI50 (SK-MEL-28 (Melanoma)): 1560 nM
TGI (SK-MEL-28 (Melanoma)): 2.89E−06
Percent Growth (SK-MEL-28 (Melanoma); Log10 Concentration −4.0): −53%
Percent Growth (SK-MEL-28 (Melanoma); Log10 Concentration −5.0): −100%
Percent Growth (SK-MEL-28 (Melanoma); Log10 Concentration −7.0): 90%
GI50 [4]: 1700 nM
TGI [4]: 3.07E−06
Percent Growth ([4]; Log10 Concentration −4.0): −27%
Percent Growth ([4]; Log10 Concentration −5.0): −100%
Percent Growth ([4]; Log10 Concentration −6.0): 95%
GI50 [5]: 2640 nM
TGI [5]: 7.73E−06
Percent Growth ([5]; Log10 Concentration −4.0): −47%
Percent Growth ([5]; Log10 Concentration −6.0): 95%
Percent Growth ([5]; Log10 Concentration −8.0): 98%
TGI [6]: 1.66E−06
Percent Growth ([6]; Log10 Concentration −4.0): −39%
Percent Growth ([6]; Log10 Concentration −5.0): −98%
Percent Growth ([6]; Log10 Concentration −6.0): 27%
Percent Growth ([6]; Log10 Concentration −7.0): 78%
Percent Growth ([6]; Log10 Concentration −8.0): 47%

From patent US8741944B2, “Anti-infective agents against intracellular pathogens” (priority 2007, dated 2014)
